# What was measured:
# transition dairy cows [1] = test: Clinical responses, dry matter intake and milk yield of transition cows given LPS; format: in vivo, Holstein cows; details: oral; whole experimental period
# Description: We then investigated how transition cows respond clinically to repeated oral and intravenous exposure to an E. coli antigen (E. coli lipopolysaccharide—(“LPS”)) during the 2 weeks before and 1 week after calving, and to determine the effects of repeated oral or intravenous administration of E. coli LPS on eating behaviour and milk yield during the transition period.
# During their final 3 wk prepartum, 32 multiparous Holstein cows were housed in a tie-stall barn with wood shavings for bedding, the number at any given time varied depending on the number of cows at that stage of gestation. Cows were blocked based on their parity, previous milk production as well as their expected day of calving and randomly assigned to one of the four treatment groups (8 cows/group) in a randomized blocked design 2 wk before the expected day of calving until 4 wk postpartum. […]
# Diets were mixed and offered as TMR individually once a day at 0600 h. Orts were recorded and discarded before the next feeding each day and the amount of feed was adjusted to ensure a 10% feed residual. Cows were milked twice a day at 0400 and 1500 h, and milk yield was recorded electronically every day for the first 28 days of lactation. All clinical disease and medication were recorded daily during the whole experimental period. […]
# transition dairy cows [2] = test: Plasma anti-LPS immunoglobulins A, G and M of transition cows given oral LPS; format: in vivo, Holstein cows; details: around parturition
# Description: (§1) During their final 3 wk prepartum, 32 multiparous Holstein cows were housed in a tie-stall barn with wood shavings for bedding, the number at any given time varied depending on the number of cows at that stage of gestation. Cows were blocked based on their parity, previous milk production as well as their expected day of calving and randomly assigned to one of the four treatment groups (8 cows/group) in a randomized blocked design 2 wk before the expected day of calving until 4 wk postpartum. Cows were offered dry-period and early-lactation diets, formulated according to NRC recommendation (2001) for transition dairy cows.
# The four groups of cows were administered on d 14, 11, 7, and 4 before the expected day of parturition as well as on d 1 and 3 after parturition, one of the following treatments: (1) oral delivery of 2 mL of saline (0.15 M NaCl), (2) oral delivery of 2 mL of saline containing lipopolysaccharide (LPS) from Escherichia coli 0111:B4 (Sigma, St. Louis, Mo.), (3) intravenous delivery of 100 mL of saline (0.15 M NaCl), or (4) intravenous delivery of 100 mL of saline containing LPS from E. coli 0111:B4. A 5 mL syringe was used for administration of treatment into the oral cavity. […] Rectal temperature, respiration rate, and rumen contraction was measured from all cows 15 min before as well as 60, 120, 180, 240, 300, and 360 min after administration of treatment. […]
# (§2) Blood was collected into 10-ml Vacutainer tubes (Beckton Dickinson and Co., Rutherford, N.J.) containing K3-EDTA, and plasma was prepared by centrifugation within 20 min. Plasma samples were stored at −20° C. until analyzed for concentrations of serum amyloid A (SAA), lipopolysaccharide-binding protein (LBP), haptoglobin, C-reactive protein (CRP), glucose, insulin, non-esterified fatty acids (NEFA), beta-hydroxybutyric acid (BHBA), lactate, cholesterol, cortisol, calcium, copper, iron, zinc as well as anti-LPS immunoglobulin A, G, and M.
# transition dairy cows [3] = test: Clinical incidence of postpartal metabolic disorders after oral vaccination of transition cows; format: in vivo, Holstein cows; details: for reduction of the incidence of metabolic disorders: vs oral saline
# Description: as §1
# Diets were mixed and offered as TMR individually once a day at 0600 h. Orts were recorded and discarded before the next feeding each day and the amount of feed was adjusted to ensure a 10% feed residual. Cows were milked twice a day at 0400 and 1500 h, and milk yield was recorded electronically every day for the first 28 days of lactation. All clinical disease and medication were recorded daily during the whole experimental period. The experiment was conducted at the University of Alberta Dairy Research and Technology Center, Edmonton, Canada. All cows were managed and treated in accordance with the guidelines established by the Canadian Council on Animal Care (1993) and all animal-related procedures were approved by the University of Alberta Faculty Animal Policy and Welfare Committee.
# (§3) The four groups of cows were administered on d 14, 11, 7, and 4 before the expected day of parturition as well as on d 1 and 3 after parturition, one of the following treatments: (1) oral delivery of 2 mL of saline (0.15 M NaCl), (2) oral delivery of 2 mL of saline containing lipopolysaccharide (LPS) from Escherichia coli 0111:B4 (Sigma, St. Louis, Mo.), (3) intravenous delivery of 100 mL of saline (0.15 M NaCl), or (4) intravenous delivery of 100 mL of saline containing LPS from E. coli 0111:B4. A 5 mL syringe was used for administration of treatment into the oral cavity. The amount of LPS given to cows orally or intravenously (iv) was as follows: (1) on d 14 and 11 before the expected day of parturition 0.01 μg/kg of BW dissolved in 2 mL (oral) or 100 mL (iv) of saline, (2) on d 7 and 4 before the expected day of parturition 0.05 μg/kg of BW dissolved in 2 mL (oral) or 100 mL (iv) of saline, and (3) on d 1 and 3 after parturition 0.1 μg/kg of BW dissolved in 2 mL (oral) or 100 mL (iv) of saline. Cows were given one flat dose of LPS based on the 650 kg average body weight of cows at Dairy Research and Technology Transfer. Rectal temperature, respiration rate, and rumen contraction was measured from all cows 15 min before as well as 60, 120, 180, 240, 300, and 360 min after administration of treatment.
# transition dairy cows [4] = test: Plasma metabolites, minerals and acute phase proteins of transition cows given LPS; format: in vivo, Holstein cows; details: oral
# Description: as §1, §3
# A catheter was introduced into the jugular vein 1 h before the administration of treatment to all cows in the experiment. Blood samples were obtained from the jugular catheter 15 min before as well as at 15, 30, 60, 120, 180, 240, 300, and 360 min after administration of treatment on d 14, 11, 7, and 4 before the expected day of parturition as well as on d 1 and 3 after parturition. Also, 1 single blood sample was obtained during d 10, 17, and 24 after parturition.
# as §2
# rumen tissue = test: Ussing chamber permeability of rumen tissue to 3H-mannitol and LPS; format: cell-based, feedlot steers; details: for increase of permeability of rumen tissue to 3H-mannitol: acidic pH 4.5 and presence of LPS (500 μg/mL), Ussing chamber
# Description: FIG. 5 is a graph depicting permeability of rumen tissue (obtained from killed feedlot steers) to ^3H-labeled mannitol under different pH values and in the presence (▪) or absence (□) of lipopolysaccharide (LPS) from E. coli B:055 in an Ussing chamber.
# FIG. 7 is a graph depicting translocation of LPS across rumen tissue (obtained from killed feedlot steers) under different pH values and in the presence (▪) or absence (□) of lipopolysaccharide (LPS) from E. coli B:055 in an Ussing chamber.
# (§4) Accordingly, we investigated whether common rumen fluid and colon concentrations of lipopolysaccharide (LPS) would affect the permeability of rumen and colon tissues to mannitol and LPS in Ussing chambers. In addition, this study was designed to answer the question whether acidic conditions similar to those found in the rumen fluid and colon during conditions of sub-acute and acute acidosis would affect the permeability of rumen and colon tissues to mannitol and LPS.
# (§5) Mannitol is a monosaccharide with a molecular weight of 182 daltons and normally is not metabolized by mammalian tissues. Mannitol normally goes through mucosal tissues in small amounts and has been used to evaluate the integrity of mucosal barriers. […] Both acidic pH and presence of LPS disrupts mucosal membranes and make them leaky to bacteria and toxic compounds like endotoxin.
# (§6) This means that LPS went through the mucosal membranes (rumen and colon tissues) independently of the pH value.
# colon tissue = test: Ussing chamber permeability of colon tissue to 3H-mannitol and LPS; format: cell-based, feedlot steers; details: for increase of permeability of colon tissue to 3H-mannitol: acidic pH 5.5 and presence of LPS (500 μg/mL), Ussing chamber
# Description: FIG. 6 is a graph depicting permeability of colon tissue (obtained from killed feedlot steers) to ^3H-labeled mannitol under different pH values and in the presence (▪) or absence (□) of lipopolysaccharide (LPS) from E. coli B:055 in an Ussing chamber.
# FIG. 8 is a graph depicting translocation of LPS across colon tissue (obtained from killed feedlot steers) under different pH values and in the presence (▪) or absence (□) of lipopolysaccharide (LPS) from E. coli B:055 in an Ussing chamber.
# as §4, §5, §6
# [5] = during 6 h after administration, first week after parturition
# [6] = listed as lipopolysaccharide (LPS) from Escherichia coli 0:B55
substance,measurement,setting,value
lipopolysaccharide (LPS) from Escherichia coli 0111:B4 [LPS from E. coli 0111:B4],dry matter intake vs control cows,transition dairy cows [1],no differences
same,increase of plasma concentration of anti-LPS immunoglobulin M (IgM),transition dairy cows [2],several fold
same,plasma IgA antibodies against endotoxin vs control cows,transition dairy cows [2],"lower in vaccinated cows compared with the control ones, although the difference did not reach significant level"
same,plasma anti-endotoxin IgG antibodies vs control cows,transition dairy cows [2],lower
same,clinical record of individual cow,"transition dairy cows [3]; oral LPS group, one cow per block","Normal—Calved day 1, Lameness day 44, Mastitis day 71"
same,reduction of the incidence of metabolic disorders,"transition dairy cows [3]; oral, after 30 d of parturition",66%
same,cows affected by metabolic disorders,"transition dairy cows [3]; oral, first 30 days after parturition",not affected by any metabolic disorders
same,cows of the group affected (lameness and mastitis),"transition dairy cows [3]; oral, more than 30 days after parturition, one cow",12%
same,reduction of the incidence of metabolic disorders,"transition dairy cows [3]; oral, within the first 30 d after parturition",100%
same,plasma glucose concentration vs control cows,transition dairy cows [4]; 2 wk before and 1 wk after calving,did not change and were higher
same,plasma insulin vs control cows,transition dairy cows [4]; around parturition,higher
same,plasma zinc,transition dairy cows [4]; around parturition,prevented the decline
same,plasma copper,transition dairy cows [4]; before and after calving,no changes
same,plasma BHBA concentration vs control cows,transition dairy cows [4]; [5],lower
same,plasma NEFA concentration vs control cows,transition dairy cows [4]; [5],lower
same,plasma cholesterol concentration vs control cows,"transition dairy cows [4]; during the 6 h after treatment, last day of the vaccination",Higher
same,plasma lipopolysaccharide-binding protein (LBP) vs control cows,transition dairy cows [4]; especially first 3 days after calving,higher in control cows than in vaccinated ones
same,plasma serum amyloid A (SAA) vs control group,transition dairy cows [4]; experimental period,no significant differences
same,plasma cholesterol concentration vs control cows,transition dairy cows [4]; experimental period / first week after parturition,did not change between the two groups
same,plasma glucose concentration vs control cows,"transition dairy cows [4]; first week after calving, before and after vaccination (FIG. 17)",higher
lipopolysaccharide (LPS) from E. coli B:055 [LPS from E. coli strain B:055],increase of permeability of rumen tissue to 3H-mannitol,rumen tissue,increase several fold
same,increase of permeability of rumen tissue to 3H-mannitol,rumen tissue; [6],4 fold
same,effect on permeability of rumen tissue to mannitol,rumen tissue; pH values between 5.5 and 7.4,did not affect
same,increase of permeability of colon tissue to 3H-mannitol,colon tissue,increase several fold
same,increase of permeability of colon tissue to 3H-mannitol,colon tissue; [6],5 fold
same,effect on permeability of colon tissue to mannitol,colon tissue; pH values between 5.5 and 7.4,did not affect

# — patent US8920814B2, “Bacterial endotoxin for the prevention of metabolic disorders and bacterial infections” (The Governors of the University of Alberta, priority 2007, dated 2014)
